The target of experiment [1] is T1, TgCEN1 (recombinant, lacking the first 21 residues) (Toxoplasma gondii, UniProt A0A125YHX7).
T1 construct: TgCEN1 (lacking the first 21 residues) and its N-terminal (N-TgCEN1, 22–94 aa) and C-terminal (C-TgCEN1, 95–169 aa) domains; made in house
In words: ITC titration of TgSFI1 peptides into TgCEN1. In kind it is binding. The note with it: for TΔS: T 298 K. How it is done: (§1) The recombinant TgCEN1 (lacking the first 21 residues) and its N-terminal (N-TgCEN1, 22–94 aa) and C-terminal (C-TgCEN1, 95–169 aa) domains were purified as previously described. The TgSFI1 peptides were synthesized by GenScript U.S.A. Inc. (Piscataway, NJ, USA). The concentration of each peptide was determined using their predicted molar extinction coefficient at 280 nm.
(§2) Isothermal titration calorimetry (ITC) experiments were performed on a MicroCal PEAQ-ITC instrument (Malvern Ltd., Malvern, UK) at 25 °C. Protein samples and peptides were solubilized in the same buffer containing 50 mM Tris–HCl, 150 mM KCl pH 7.5 and 5 mM CaCl2 or 5 mM EGTA. All the samples were filtered and degassed before use, and the pH was carefully determined to exclude any possible pH-related effect on ITC experiments.
(§3) A typical ITC experiment was performed by titrating 200 μL of a 30–50 μM protein solution with a 1 or 1.5 μL injection of 0.3–0.5 mM peptide (total injections 39 or 26, respectively) with an initial delay of 120 s and keeping a time gap of 120 s between injections. A reference injection of peptide into buffer without centrin was performed and subtracted from each experiment. The resulting curves were fitted to calculate apparent dissociation constants Kd, enthalpy changes (ΔH), and the apparent entropy change (ΔS) using the software MicroCal ITC Origin 7 Analysis Software (MicroCal, Malvern Ltd., Malvern, UK). All measurements were repeated in triplicate using at least two different protein preparations and the error was calculated as the mean standard error of the three measurements.

Experiment [2] deals with T2, C-TgCEN1 (C-terminal domain, 95–169 aa) (Toxoplasma gondii, UniProt A0A125YHX7).
T2 construct: C-terminal (C-TgCEN1, 95–169 aa); made in house
Description: ITC titration of TgSFI1 peptides into C-TgCEN1. The note with it: SEM; for Kd / n (stoichiometry of binding) / ΔH: 25 °C; for Kd / n (stoichiometry of binding): 50 mM Tris-HCl; for TΔS: T 298 K. In kind it is binding. On the procedure: as §1, §2, §3

The target of experiment [3] is T3, N-TgCEN1 (N-terminal domain, 22–94 aa) (Toxoplasma gondii, UniProt A0A125YHX7).
T3 construct: N-terminal (N-TgCEN1, 22–94 aa); made in house
In words: ITC titration of TgSFI1 peptides into N-TgCEN1. The note with it: SEM. In kind it is binding. How it is done: as §1, §2, §3
Background: Isothermal titration calorimetry measures the heat released or taken up as one component is titrated into another.

Experiment [4] concerns the target TgSFI1 R16 peptide R16 (Toxoplasma gondii) (UniProt S8F258). Description: ITC.
Where [5] appears, read: 25 °C, 50 mM Tris-HCl, 150 mM KCl pH 7.5, 5 mM CaCl2, single binding site, mean ± SE of triplicate, SEM.
Where [6] appears, read: Ca2+-bound TgCEN1, single exothermic event, order of magnitude in text.
Where [7] appears, read: 150 mM KCl pH 7.5, 5 mM CaCl2, mean ± SE of triplicate.
Where [8] appears, read: 25 °C, 50 mM Tris-HCl, 150 mM KCl pH 7.5, 5 mM EGTA, mean ± SE of triplicate, dash = no binding observed, SEM.
[9] abbreviates: 150 mM KCl pH 7.5, 5 mM EGTA, mean ± SE of triplicate, dash = no binding observed.
[10] abbreviates: 25 °C, 50 mM Tris-HCl, 150 mM KCl pH 7.5, 5 mM CaCl2, first site (n1) of two-step binding, mean ± SE of triplicate, SEM.
[11] abbreviates: 25 °C, 50 mM Tris-HCl, 150 mM KCl pH 7.5, 5 mM CaCl2, second site (n2) of two-step binding, mean ± SE of triplicate, SEM.
The mark [12] stands for this setting: pH 7.5, 5 mM CaCl2, mean ± SE of triplicate.
The mark [13] stands for this setting: pH 7.5, 5 mM EGTA, mean ± SE of triplicate.

Where no end group is shown, it is not given here.

This note sets out measurements from paper PMC9406199, “Conformational Plasticity of Centrin 1 from Toxoplasma gondii in Binding to the Centrosomal Protein SFI1” (Biomolecules, 2022).

T3 sequence (A0A125YHX7 22-94): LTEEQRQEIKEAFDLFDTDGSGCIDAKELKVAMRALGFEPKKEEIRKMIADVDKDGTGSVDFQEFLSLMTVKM
T2 sequence (A0A125YHX7 95-169): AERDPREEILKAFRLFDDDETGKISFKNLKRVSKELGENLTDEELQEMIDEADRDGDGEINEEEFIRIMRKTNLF
T1 sequence (A0A125YHX7 22-169): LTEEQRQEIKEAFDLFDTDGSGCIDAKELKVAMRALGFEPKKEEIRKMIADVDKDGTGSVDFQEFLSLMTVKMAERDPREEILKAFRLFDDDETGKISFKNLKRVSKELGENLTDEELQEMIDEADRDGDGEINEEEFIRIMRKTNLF
Chain of TgSFI1 R16 peptide R16 (Toxoplasma gondii) (S8F258 whole entry): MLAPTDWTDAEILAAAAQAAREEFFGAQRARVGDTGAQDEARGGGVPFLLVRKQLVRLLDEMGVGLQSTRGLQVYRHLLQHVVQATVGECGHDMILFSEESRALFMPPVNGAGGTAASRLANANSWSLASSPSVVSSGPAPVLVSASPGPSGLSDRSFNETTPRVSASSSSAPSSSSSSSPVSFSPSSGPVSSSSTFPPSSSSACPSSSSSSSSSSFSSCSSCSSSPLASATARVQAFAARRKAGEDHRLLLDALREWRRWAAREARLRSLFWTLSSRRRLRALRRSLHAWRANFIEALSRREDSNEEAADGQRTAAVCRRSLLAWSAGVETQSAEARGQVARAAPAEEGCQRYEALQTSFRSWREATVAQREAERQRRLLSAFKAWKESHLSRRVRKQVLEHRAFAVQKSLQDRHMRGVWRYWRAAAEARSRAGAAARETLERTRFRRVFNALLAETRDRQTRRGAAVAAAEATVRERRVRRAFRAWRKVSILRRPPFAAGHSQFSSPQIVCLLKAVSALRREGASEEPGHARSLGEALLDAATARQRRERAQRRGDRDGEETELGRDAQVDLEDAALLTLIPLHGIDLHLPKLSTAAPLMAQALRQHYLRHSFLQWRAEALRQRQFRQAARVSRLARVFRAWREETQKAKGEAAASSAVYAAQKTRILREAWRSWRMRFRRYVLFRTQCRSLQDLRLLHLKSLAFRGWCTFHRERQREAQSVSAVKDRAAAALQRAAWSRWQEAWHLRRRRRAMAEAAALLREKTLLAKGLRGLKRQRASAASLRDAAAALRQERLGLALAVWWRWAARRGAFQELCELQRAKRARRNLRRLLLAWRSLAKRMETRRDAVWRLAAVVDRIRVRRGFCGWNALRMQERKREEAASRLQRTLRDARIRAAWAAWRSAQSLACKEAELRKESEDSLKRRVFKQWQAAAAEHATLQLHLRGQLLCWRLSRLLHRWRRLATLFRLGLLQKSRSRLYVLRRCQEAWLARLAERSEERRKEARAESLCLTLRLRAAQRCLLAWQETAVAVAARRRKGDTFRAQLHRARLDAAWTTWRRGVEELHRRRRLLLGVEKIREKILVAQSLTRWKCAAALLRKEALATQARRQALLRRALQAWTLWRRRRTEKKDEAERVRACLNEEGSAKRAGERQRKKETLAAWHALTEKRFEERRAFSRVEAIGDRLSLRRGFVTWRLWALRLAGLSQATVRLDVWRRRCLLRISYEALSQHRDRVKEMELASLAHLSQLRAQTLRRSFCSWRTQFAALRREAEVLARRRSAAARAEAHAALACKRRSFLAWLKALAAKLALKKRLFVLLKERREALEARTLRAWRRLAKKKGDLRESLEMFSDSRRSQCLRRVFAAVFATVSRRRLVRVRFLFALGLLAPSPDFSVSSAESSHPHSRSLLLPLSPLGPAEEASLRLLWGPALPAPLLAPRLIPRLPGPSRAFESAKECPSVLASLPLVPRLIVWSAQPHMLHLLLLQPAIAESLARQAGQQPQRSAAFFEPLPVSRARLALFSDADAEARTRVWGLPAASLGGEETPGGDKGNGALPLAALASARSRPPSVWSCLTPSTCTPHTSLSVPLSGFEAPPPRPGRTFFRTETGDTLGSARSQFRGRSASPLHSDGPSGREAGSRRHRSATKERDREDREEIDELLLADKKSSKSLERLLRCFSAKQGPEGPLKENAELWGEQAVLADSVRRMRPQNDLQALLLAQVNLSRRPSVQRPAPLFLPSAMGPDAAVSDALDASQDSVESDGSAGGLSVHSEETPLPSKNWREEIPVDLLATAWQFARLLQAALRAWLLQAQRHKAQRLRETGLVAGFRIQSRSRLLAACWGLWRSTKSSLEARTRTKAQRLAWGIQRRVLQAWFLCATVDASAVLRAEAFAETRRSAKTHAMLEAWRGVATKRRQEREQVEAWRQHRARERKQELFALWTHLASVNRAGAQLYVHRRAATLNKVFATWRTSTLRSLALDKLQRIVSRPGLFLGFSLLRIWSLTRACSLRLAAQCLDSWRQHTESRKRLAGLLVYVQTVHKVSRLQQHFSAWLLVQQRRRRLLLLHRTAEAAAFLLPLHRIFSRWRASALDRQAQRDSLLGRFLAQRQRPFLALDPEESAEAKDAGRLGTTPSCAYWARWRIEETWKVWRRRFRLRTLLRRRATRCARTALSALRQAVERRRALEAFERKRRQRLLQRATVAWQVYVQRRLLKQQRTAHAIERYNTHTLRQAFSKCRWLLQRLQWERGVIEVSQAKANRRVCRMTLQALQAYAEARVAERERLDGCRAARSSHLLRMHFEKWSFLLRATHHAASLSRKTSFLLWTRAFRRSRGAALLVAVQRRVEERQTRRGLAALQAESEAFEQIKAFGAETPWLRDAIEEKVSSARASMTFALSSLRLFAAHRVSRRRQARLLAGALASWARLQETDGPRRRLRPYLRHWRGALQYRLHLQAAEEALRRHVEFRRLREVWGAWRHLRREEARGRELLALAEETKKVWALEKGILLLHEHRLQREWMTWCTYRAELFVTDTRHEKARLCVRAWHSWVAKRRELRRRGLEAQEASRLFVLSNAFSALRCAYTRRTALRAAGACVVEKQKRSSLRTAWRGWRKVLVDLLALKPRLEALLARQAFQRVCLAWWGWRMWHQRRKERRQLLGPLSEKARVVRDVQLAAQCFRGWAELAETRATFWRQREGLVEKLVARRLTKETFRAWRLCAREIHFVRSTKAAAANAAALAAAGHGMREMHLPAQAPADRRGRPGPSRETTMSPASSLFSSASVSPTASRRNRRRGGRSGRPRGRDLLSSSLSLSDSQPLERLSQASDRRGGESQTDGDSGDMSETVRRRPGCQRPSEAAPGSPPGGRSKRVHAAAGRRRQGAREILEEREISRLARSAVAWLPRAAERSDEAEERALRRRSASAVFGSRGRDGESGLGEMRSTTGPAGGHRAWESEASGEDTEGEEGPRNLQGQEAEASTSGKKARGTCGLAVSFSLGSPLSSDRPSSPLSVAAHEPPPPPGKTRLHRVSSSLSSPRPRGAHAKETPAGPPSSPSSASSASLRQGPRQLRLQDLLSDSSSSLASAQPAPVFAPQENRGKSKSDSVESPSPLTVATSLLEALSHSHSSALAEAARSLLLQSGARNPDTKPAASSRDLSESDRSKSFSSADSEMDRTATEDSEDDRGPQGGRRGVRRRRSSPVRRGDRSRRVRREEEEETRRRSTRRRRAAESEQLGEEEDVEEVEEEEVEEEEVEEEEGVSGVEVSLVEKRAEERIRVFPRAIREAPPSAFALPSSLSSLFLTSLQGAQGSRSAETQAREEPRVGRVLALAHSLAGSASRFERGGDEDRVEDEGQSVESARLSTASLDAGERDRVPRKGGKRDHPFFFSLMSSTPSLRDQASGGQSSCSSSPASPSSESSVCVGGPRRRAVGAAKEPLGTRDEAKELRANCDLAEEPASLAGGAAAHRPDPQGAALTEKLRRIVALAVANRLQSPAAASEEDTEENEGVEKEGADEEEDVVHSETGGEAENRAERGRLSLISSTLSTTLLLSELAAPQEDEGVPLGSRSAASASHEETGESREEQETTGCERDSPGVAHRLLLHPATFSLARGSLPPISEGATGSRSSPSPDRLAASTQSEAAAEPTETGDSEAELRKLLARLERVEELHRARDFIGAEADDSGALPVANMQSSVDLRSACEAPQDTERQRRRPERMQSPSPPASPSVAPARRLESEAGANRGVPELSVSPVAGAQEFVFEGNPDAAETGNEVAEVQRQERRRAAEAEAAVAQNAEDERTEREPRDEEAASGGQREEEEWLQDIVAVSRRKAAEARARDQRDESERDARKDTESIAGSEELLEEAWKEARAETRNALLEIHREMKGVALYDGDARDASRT
Chain of TgCEN1 (A0A125YHX7 whole entry): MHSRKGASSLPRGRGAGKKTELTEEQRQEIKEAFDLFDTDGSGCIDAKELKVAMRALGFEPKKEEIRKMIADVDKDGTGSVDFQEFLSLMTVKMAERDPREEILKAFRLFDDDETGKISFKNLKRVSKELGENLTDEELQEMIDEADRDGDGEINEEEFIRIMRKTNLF

By Kd is commonly meant the concentration at which binding is half-saturated. As to AEAAAFLLPLHRIFSRWR [R24], the results for the dissociation constant (Kd) in experiment [1] (setting [5]), in experiment [1] (setting [6]) and in experiment [2] (setting [7]) were 3.4 ± 0.6 µM, approximately 1 µM and 2.6 ± 0.3 µM, respectively.
With AEATVRERRVRRAFRAWR [R5], the dissociation constant (Kd) was found to be 0.5 ± 0.1 µM in experiment [1] (setting [5]), 36.9 ± 6.6 µM in experiment [1] (setting [8]), 0.9 ± 0.1 µM in experiment [2] (setting [7]) and 47.8 ± 4.9 µM in experiment [2] (setting [9]).
As to LATQARRQALLRRALQAWTL [R16], the dissociation constant (Kd) in experiment [1] (setting [10]) was 0.009 ± 0.001 µM; in experiment [1] (setting [11]) it was 0.5 ± 0.1 µM; in experiment [1] (setting [8]), 3.4 ± 0.3 µM; in experiment [3] (25 °C, 50 mM Tris-HCl, 150 mM KCl pH 7.5, 5 mM CaCl2, mean ± SE of triplicate, dash = no binding observed) it was 0.4 ± 0.1 µM; in experiment [2] (setting [7]), 0.006 ± 0.001 µM; in experiment [2] (setting [9]), 9.1 ± 0.8 µM.
On to LQRAKRARRNLRRLLLAWRS [R10], for which the “n (stoichiometry of binding), n1” value in experiment [1] (setting [10]) was “n1 = 0.7 ± 0.1”. For the same substance, the “n (stoichiometry of binding), n2” value in experiment [1] (setting [11]) is reported as “n2 = 0.9 ± 0.1”. Besides, the “n (stoichiometry of binding)” value is recorded as 0.8 ± 0.1 in experiment [1] (25 °C, 50 mM Tris-HCl, 150 mM KCl pH 7.5, 5 mM EGTA, mean ± SE of triplicate, SEM); 0.7 ± 0.1 in experiment [3] (25 °C, 50 mM Tris-HCl, 150 mM KCl pH 7.5, 5 mM CaCl2, mean ± SE of triplicate); 0.7 ± 0.1 in experiment [2] (setting [7]); 0.7 ± 0.1 in experiment [2] (150 mM KCl pH 7.5, 5 mM EGTA, mean ± SE of triplicate). Also, the ΔH was -19.1 ± 0.4 kcal/mol in experiment [1] (25 °C, pH 7.5, 5 mM CaCl2, first site (n1), mean ± SE of triplicate, SEM); -12.1 ± 0.3 kcal/mol in experiment [1] (25 °C, pH 7.5, 5 mM CaCl2, second site (n2), mean ± SE of triplicate, SEM); -24.7 ± 0.4 kcal/mol in experiment [1] (25 °C, pH 7.5, 5 mM EGTA, mean ± SE of triplicate, SEM); -12.6 ± 0.9 kcal/mol in experiment [3] (25 °C, pH 7.5, 5 mM CaCl2, mean ± SE of triplicate); -15.8 ± 0.1 kcal/mol in experiment [2] (setting [12]); -19.3 ± 0.1 kcal/mol in experiment [2] (setting [13]). Moreover, the TΔS in experiment [1] (pH 7.5, 5 mM CaCl2, first site (n1), mean ± SE of triplicate, SEM) was -6.3 ± 0.4 kcal/mol; in experiment [1] (pH 7.5, 5 mM CaCl2, second site (n2), mean ± SE of triplicate, SEM), -4.4 ± 0.3 kcal/mol; in experiment [1] (pH 7.5, 5 mM EGTA, mean ± SE of triplicate, SEM) it was -16.4 ± 0.4 kcal/mol; in experiment [3] (T 298 K, pH 7.5, 5 mM CaCl2, mean ± SE of triplicate), -4.4 ± 1.0 kcal/mol; in experiment [2] (setting [12]), -5.5 ± 0.5 kcal/mol; in experiment [2] (setting [13]) it was -11.5 ± 0.7 kcal/mol.
In the case of LQRTLRDARIRAAWAAWR [R12], the equilibrium dissociation constant (Kd) in experiment [1] (setting [5]) is 0.5 ± 0.1 µM; in experiment [1] (setting [8]), 29.8 ± 3.4 µM; in experiment [2] (setting [7]), 0.4 ± 0.1 µM; in experiment [2] (setting [9]), 69.9 ± 7 µM.
Consider RVEAIGDRLSLRRGFVTWRL [R17], for which the Kd in experiment [1] (setting [5]) is 0.8 ± 0.2 µM; in experiment [2] (setting [7]), 2.7 ± 0.1 µM.
On to TgCEN1 (from UniProt A0A125YHX7), for which, in experiment [4], the Kd amounted to 0.009 µM.
Consider VVEKQKRSSLRTAWRGWR [R31], for which the results for the dissociation constant Kd in experiment [1] (setting [5]), in experiment [1] (setting [6]) and in experiment [2] (setting [7]) were 2.9 ± 0.1 µM, approximately 1 µM and 1.9 ± 0.1 µM, respectively.
